According to patent US8940893B2, “Heteroaromatic compounds as BTK inhibitors” (Boehringer Ingelheim International GmbH, priority 2013, dated 2015):

Target: full-length human His-tagged BTK (Homo sapiens (Human), UniProt Q06187)
Experiment: BTK HTRF assay (Cisbio KinEASE-TK)
Type: biochemical
Conditions: 6 nM BTK, 15 min preincubation at 28° C., 30 uM ATP
Description: BTK Assay An HTRF assay (Cisbio KinEASE-TK cat #62TKOPEC) was performed to quantitate the ability of test compounds to inhibit BTK mediated phosphorylation of substrate. […] Then, 1 uM of TK substrate-biotin and 30 uM ATP were added and incubated for an additional 30 minutes at 28° C. Phospohrylation was detected by adding 62.5 nM Streptavidin-XL665 and TK-Antibody Cryptate diluted 1:100 in HTRF detection buffer (Cisbio cat #62SDBRDF) and incubated for 60 minutes at RT. The plate was read on an Envision plate reader and the fluoresence is measured at 620 nm (cryptate) and 665 nm (XL665). A ratio is calculated (665/620) and converted to POC relative to control and blank wells. Assay Buffer: […]

full-length human His-tagged BTK, sequence (Q06187 whole entry): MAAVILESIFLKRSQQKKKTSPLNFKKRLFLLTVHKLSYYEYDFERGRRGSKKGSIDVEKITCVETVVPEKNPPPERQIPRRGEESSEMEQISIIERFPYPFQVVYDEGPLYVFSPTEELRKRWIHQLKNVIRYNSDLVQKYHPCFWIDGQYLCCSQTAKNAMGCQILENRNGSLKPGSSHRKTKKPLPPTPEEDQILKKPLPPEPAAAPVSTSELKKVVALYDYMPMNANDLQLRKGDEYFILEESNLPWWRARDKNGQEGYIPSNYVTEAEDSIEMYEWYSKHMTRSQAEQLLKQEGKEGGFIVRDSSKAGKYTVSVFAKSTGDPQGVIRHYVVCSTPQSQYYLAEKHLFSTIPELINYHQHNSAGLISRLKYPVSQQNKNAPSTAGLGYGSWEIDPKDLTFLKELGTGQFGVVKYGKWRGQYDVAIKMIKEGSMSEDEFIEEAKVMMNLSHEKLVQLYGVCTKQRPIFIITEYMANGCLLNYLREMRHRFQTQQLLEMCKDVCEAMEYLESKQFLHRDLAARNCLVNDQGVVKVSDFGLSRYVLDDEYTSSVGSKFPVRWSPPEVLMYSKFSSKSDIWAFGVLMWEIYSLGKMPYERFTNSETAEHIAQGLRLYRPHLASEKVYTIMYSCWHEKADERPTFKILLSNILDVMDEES

Q: How did the IC50 turn out when `C=CC(=O)N1CC2(CC(n3nc(-c4ccc(Oc5ccccc5)cc4)c4c(N)ncnc43)C2)C1` [Example 1] was run?
A: 1 nM

Q: With `CN(C)C/C=C/C(=O)N1CC2(CC(n3nc(-c4ccc(Oc5ccccc5)cc4)c4c(N)ncnc43)C2)C1` [Example 2] as the compound, how does the IC50 read?
A: 1.8 nM

Q: For `CC#CC(=O)N1CC2(CC(n3nc(-c4ccc(Oc5ccccc5)cc4)c4c(N)ncnc43)C2)C1` [Example 3], which IC50 is on record?
A: 0.83 nM

Q: For `Nc1ncnc2c1c(-c1ccc(Oc3ccccc3)cc1)nn2C1CC2(C1)CN(C(=O)C1CO1)C2` (stereo not shown) [Example 4], which IC50 is on record?
A: 13 nM

Q: For `C=CC(=O)N1CCC2(CC(n3nc(-c4ccc(Oc5ccccc5)cc4)c4c(N)ncnc43)C2)C1` (stereo not shown) [Example 5], which IC50 is on record?
A: 0.87 nM

Q: For `C=CC(=O)N1CC2(CC(n3nc(-c4ccc(-c5cnc(Cc6ccccc6)n(C)c5=O)cc4F)c4c(N)ncnc43)C2)C1` [Example 6], which IC50 is on record?
A: 0.85 nM

Q: `CC#CC(=O)N1CC2(CC(n3nc(-c4ccc(Oc5ccccc5)nc4)c4c(N)ncnc43)C2)C1` [Example 7] was tested. Which IC50 did it give?
A: 1.1 nM

Q: How did the IC50 turn out when `C=CC(=O)N1CC2(CC(n3nc(-c4ccc(Oc5ccccc5)nc4)c4c(N)ncnc43)C2)C1` [Example 8] was run?
A: 2.4 nM

Q: With `C/C=C/C(=O)N1CC2(CC(n3nc(-c4ccc(Oc5ccccc5)nc4)c4c(N)ncnc43)C2)C1` [Example 9] as the compound, how does the IC50 read?
A: 83 nM

Q: How did the IC50 turn out when `CC#CC(=O)N1CC[C@]2(C1)C[C@@H](n1nc(-c3ccc(Oc4ccccc4)cn3)c3c(N)ncnc31)C2` [Example 13] was run?
A: 0.74 nM

Q: `CN(C)C/C=C/C(=O)N1CC2(CC(n3nc(-c4ccc(Oc5ccccc5)cn4)c4c(N)ncnc43)C2)C1` [Example 15] was tested. Which IC50 did it give?
A: 32 nM

Q: With `CN(C)C/C=C/C(=O)N1CC[C@]2(C1)C[C@@H](n1nc(-c3ccc(Oc4ccccc4)cn3)c3c(N)ncnc31)C2` [Example 16] as the compound, how does the IC50 read?
A: 8.1 nM

Q: Which IC50 does the source give for `CN(C)C/C=C/C(=O)N1CC[C@]2(C1)C[C@H](n1nc(-c3ccc(Oc4ccccc4)cn3)c3c(N)ncnc31)C2` [Example 17] here?
A: 7.1 nM
